Assay results published in patent US8865623B2, “Herbicidally active cyclic diones and derivatives thereof, processes for their preparation, compositions, and method of controlling weeds” (Syngenta Limited, priority 2009, dated 2014).

Assays:
Format in all cases: in vivo
[1] = test system: Lolium perenne (LOLPE); experiment: Pre-emergence herbicidal activity, glasshouse pot test; settings: evaluated after 13 days; for pest or weed control at 250 g/ha: Lolium perenne, 312 h, Rate 250 g/ha, pre-emergence spray, read-out: Pre-emergence activity LOLPE (100=total damage to plant; 0=no damage to plant)
Procedure, shortened: (§1)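 Glasshouse pots, standard soil; spray at day 1 (pre) or day 8 (post) after sowing; a.i. in acetone/water 50:50 + 0.5% Tween 20, diluted aqueous. 24/16° C, 14 h light, 65% RH. Visual damage at 13 days: 0 = none, 100 = total.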

[2] = test system: Alopecurus myosuroides (ALOMY); experiment: as above; settings: evaluated after 13 days; for pest or weed control at 250 g/ha: Alopecurus myosuroides, 312 h, Rate 250 g/ha, pre-emergence spray, read-out: Pre-emergence activity ALOMY (100=total damage to plant; 0=no damage to plant)
Procedure, shortened: as §1

[3] = test system: Echinochloa crus-galli (ECHCG); experiment: as above; settings: evaluated after 13 days; for pest or weed control at 250 g/ha: Echinochloa crus-galli, 312 h, Rate 250 g/ha, pre-emergence spray, read-out: Pre-emergence activity ECHCG (100=total damage to plant; 0=no damage to plant)
Procedure, shortened: as §1

[4] = test system: Avena fatua (AVEFA); experiment: as above; settings: evaluated after 13 days; for pest or weed control at 250 g/ha: Avena fatua, 312 h, Rate 250 g/ha, pre-emergence spray, read-out: Pre-emergence activity AVEFA (100=total damage to plant; 0=no damage to plant)
Procedure, shortened: as §1

[5] = test system: Lolium perenne (LOLPE); experiment: Post-emergence herbicidal activity, glasshouse pot test; settings: rate 250 g/ha, evaluated after 13 days; for pest or weed control at 250 g/ha: Lolium perenne, 312 h, glasshouse, read-out: Post-emergence activity LOLPE (100=total damage to plant; 0=no damage to plant)
Procedure, shortened: as §1

[6] = test system: Alopecurus myosuroides (ALOMY); experiment: as above; settings: rate 250 g/ha, evaluated after 13 days; for pest or weed control at 250 g/ha: Alopecurus myosuroides, 312 h, glasshouse, read-out: Post-emergence activity ALOMY (100=total damage to plant; 0=no damage to plant)
Procedure, shortened: as §1

[7] = test system: Echinochloa crus-galli (ECHCG); experiment: as above; settings: rate 250 g/ha, evaluated after 13 days; for pest or weed control at 250 g/ha: Echinochloa crus-galli, 312 h, glasshouse, read-out: Post-emergence activity ECHCG (100=total damage to plant; 0=no damage to plant)
Procedure, shortened: as §1

[8] = test system: Avena fatua (AVEFA); experiment: as above; settings: rate 250 g/ha, evaluated after 13 days; for pest or weed control at 250 g/ha: Avena fatua, 312 h, glasshouse, read-out: Post-emergence activity AVEFA (100=total damage to plant; 0=no damage to plant)
Procedure, shortened: as §1

CCc1ccc(Oc2cnc3cc(Cl)ccc3n2)cc1C1=C(O)C(C)(C)OC(C)(C)C1=O [Example A-55]
pest or weed control at 250 g/ha [1]: 100% | pest or weed control at 250 g/ha [2]: 80% | pest or weed control at 250 g/ha [3]: 100% | pest or weed control at 250 g/ha [4]: 90% | pest or weed control at 250 g/ha [5]: 100% | pest or weed control at 250 g/ha [6]: 100% | pest or weed control at 250 g/ha [7]: 100% | pest or weed control at 250 g/ha [8]: 100%

CCc1ccc(Oc2ncc(C(F)(F)F)cc2Cl)cc1C1=C(O)C(C)(C)OC(C)(C)C1=O [Example A-45]
pest or weed control at 250 g/ha [1]: 100% | pest or weed control at 250 g/ha [2]: 100% | pest or weed control at 250 g/ha [3]: 100% | pest or weed control at 250 g/ha [4]: 100% | pest or weed control at 250 g/ha [5]: 100% | pest or weed control at 250 g/ha [6]: 100% | pest or weed control at 250 g/ha [7]: 100% | pest or weed control at 250 g/ha [8]: 100%

CCc1ccc(Oc2nc3ccc(Cl)cc3s2)cc1C1=C(O)[C@H]2CC[C@H](C2)C1=O [Example A-338]
pest or weed control at 250 g/ha [1]: 100% | pest or weed control at 250 g/ha [2]: 90% | pest or weed control at 250 g/ha [3]: 100% | pest or weed control at 250 g/ha [4]: 80% | pest or weed control at 250 g/ha [5]: 100% | pest or weed control at 250 g/ha [6]: 100% | pest or weed control at 250 g/ha [7]: 100% | pest or weed control at 250 g/ha [8]: 100%

CCCOC(=O)OC1=C(c2cc(Oc3ccc(C#N)cc3F)ccc2CC)C(=O)C(C)(C)OC1(C)C [Example P-6]
LOLPE damage to plant (100=total damage to plant; 0=no damage to plant) ([1]; pre-emergence, rate 250 g/ha): 90 | ALOMY damage to plant (100=total damage to plant; 0=no damage to plant) ([2]; pre-emergence, rate 250 g/ha): 80 | ECHCG damage to plant (100=total damage to plant; 0=no damage to plant) ([3]; pre-emergence, rate 250 g/ha): 100 | AVEFA damage to plant (100=total damage to plant; 0=no damage to plant) ([4]; pre-emergence, rate 250 g/ha): 20 | LOLPE damage to plant (100=total damage to plant; 0=no damage to plant) [5]: 70 | ALOMY damage to plant (100=total damage to plant; 0=no damage to plant) [6]: 90 | ECHCG damage to plant (100=total damage to plant; 0=no damage to plant) [7]: 90 | AVEFA damage to plant (100=total damage to plant; 0=no damage to plant) [8]: 50

CCc1ccc(Oc2ncc(C(F)(F)F)cc2F)cc1C1=C(O)CC2(CCOCC2)CC1=O [Example A-273]
pest or weed control at 250 g/ha [1]: 100% | pest or weed control at 250 g/ha [2]: 100% | pest or weed control at 250 g/ha [3]: 100% | pest or weed control at 250 g/ha [4]: 100% | pest or weed control at 250 g/ha [5]: 100% | pest or weed control at 250 g/ha [6]: 100% | pest or weed control at 250 g/ha [7]: 100% | pest or weed control at 250 g/ha [8]: 100%

CCc1ccc(Oc2cnc3cc(Cl)ccc3n2)cc1C1=C(O)[C@H]2CC[C@H](C2)C1=O [Example A-255]
pest or weed control at 250 g/ha [1]: 100% | pest or weed control at 250 g/ha [2]: 100% | pest or weed control at 250 g/ha [3]: 100% | pest or weed control at 250 g/ha [4]: 100% | pest or weed control at 250 g/ha [5]: 100% | pest or weed control at 250 g/ha [6]: 100% | pest or weed control at 250 g/ha [7]: 100% | pest or weed control at 250 g/ha [8]: 100%

CCc1ccc(Oc2nc3ccccc3s2)cc1C1=C(O)C(C)(C)OC(C)(C)C1=O [Example A-105]
pest or weed control at 250 g/ha [1]: 100% | pest or weed control at 250 g/ha [2]: 70% | pest or weed control at 250 g/ha [3]: 100% | pest or weed control at 250 g/ha [4]: 10% | pest or weed control at 250 g/ha [5]: 90% | pest or weed control at 250 g/ha [6]: 90% | pest or weed control at 250 g/ha [7]: 90% | pest or weed control at 250 g/ha [8]: 10%

CC1(C)OC(C)(C)C(O)=C(c2cc(Oc3cnc4cc(Cl)ccc4n3)ccc2C2CC2)C1=O [Example A-279]
pest or weed control at 250 g/ha [1]: 100% | pest or weed control at 250 g/ha [2]: 90% | pest or weed control at 250 g/ha [3]: 100% | pest or weed control at 250 g/ha [4]: 100% | pest or weed control at 250 g/ha [5]: 100% | pest or weed control at 250 g/ha [6]: 100% | pest or weed control at 250 g/ha [7]: 100% | pest or weed control at 250 g/ha [8]: 100%

CCc1ccc(Oc2nc3ccc(Cl)cc3o2)cc1C1=C(O)C(C)(C)OC(C)(C)C1=O [Example A-188]
pest or weed control at 250 g/ha [1]: 100% | pest or weed control at 250 g/ha [2]: 90% | pest or weed control at 250 g/ha [3]: 90% | pest or weed control at 250 g/ha [4]: 90% | pest or weed control at 250 g/ha [5]: 100% | pest or weed control at 250 g/ha [6]: 100% | pest or weed control at 250 g/ha [7]: 100% | pest or weed control at 250 g/ha [8]: 100%
